Data as given in article PMC10333360, “Establishing mammalian GLUT kinetics and lipid composition influences in a reconstituted-liposome system” (Nature Communications, 2023).

Tests used:
rGLUT5 [1] = target: T1, rGLUT5 (Rattus norvegicus, UniProt P43427); test: competitive […]-D-fructose uptake in proteoliposomes, […] compound, […] reduction; format: biochemical
T1 construct: gene Slc2a5
T1 sequence (P43427 1-502): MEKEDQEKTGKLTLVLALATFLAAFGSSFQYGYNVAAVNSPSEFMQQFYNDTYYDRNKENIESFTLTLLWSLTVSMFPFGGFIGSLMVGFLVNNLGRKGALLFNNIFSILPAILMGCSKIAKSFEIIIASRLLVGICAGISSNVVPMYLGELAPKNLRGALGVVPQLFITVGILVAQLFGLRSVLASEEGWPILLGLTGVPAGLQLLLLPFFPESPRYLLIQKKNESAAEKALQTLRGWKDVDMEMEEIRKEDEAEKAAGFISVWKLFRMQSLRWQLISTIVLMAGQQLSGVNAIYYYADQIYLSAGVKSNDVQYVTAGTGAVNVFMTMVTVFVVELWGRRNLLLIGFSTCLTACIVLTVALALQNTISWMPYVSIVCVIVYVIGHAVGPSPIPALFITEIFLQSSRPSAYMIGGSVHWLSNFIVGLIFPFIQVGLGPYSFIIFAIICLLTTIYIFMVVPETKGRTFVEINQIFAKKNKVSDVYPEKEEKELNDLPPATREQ

rGLUT5 [2] = target: T1, rGLUT5; test: inhibition of […]-D-fructose uptake by purified rGLUT5 in brain-fraction-seven proteoliposomes; format: biochemical

Compound	% reduction (rGLUT5 [1]) [% reduction]	IC50 (rGLUT5 [2]) [µM]
Cc1ccc(NC(=O)Oc2ccccc2)cc1 [C2, phenyl-n-(p-tolyl)-carbamate]	20	–
Cc1ccc(NC(=O)Oc2ccc(C)cc2)cc1 [H4, 4-methylphenyl-N-(4-methylphenyl)-carbamate]	–	500
